In patent US9474790B2, “Stable, protracted GLP-1/glucagon receptor co-agonists for medical use” (Novo Nordisk A/S, priority 2013, dated 2016) one finds EC50 data, which are given here for four molecules.

Numbered stars: 1 amine (or outer) side, 2 acyl side, 3 side chain; on linkers, the order of the positions; unused ones are H or OH. Square brackets hold non-standard residues; d marks the D form. Side chains are listed from the residue outwards. Peptide text beside a SMILES is read from it. * marks the point of attachment. C18 diacid = O=C(O)CCCCCCCCCCCCCCCCC(=O)*; γGlu = O=C(O)[C@H](CCC(=O)[*:2])N[*:1]; Ac4c = NC1(C(=O)O)CCC1; AEEA = NCCOCCOCC(=O)O; Aib = CC(C)(N)C(=O)O

T1 sequence (P43220 24-463): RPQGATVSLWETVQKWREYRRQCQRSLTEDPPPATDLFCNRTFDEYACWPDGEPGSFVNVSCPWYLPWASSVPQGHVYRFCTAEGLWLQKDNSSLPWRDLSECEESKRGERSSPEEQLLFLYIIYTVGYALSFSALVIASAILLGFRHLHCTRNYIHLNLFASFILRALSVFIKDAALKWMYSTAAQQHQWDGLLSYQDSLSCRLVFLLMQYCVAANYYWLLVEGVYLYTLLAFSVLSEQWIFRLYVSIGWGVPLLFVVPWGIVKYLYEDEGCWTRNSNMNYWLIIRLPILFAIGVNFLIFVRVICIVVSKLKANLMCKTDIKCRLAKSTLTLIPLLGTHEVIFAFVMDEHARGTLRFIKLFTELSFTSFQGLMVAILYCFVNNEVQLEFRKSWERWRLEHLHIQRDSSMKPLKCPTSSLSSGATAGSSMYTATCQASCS

This assay has as its target T1, human GLP-1 receptor (Homo sapiens, UniProt P43220).
T1 construct: expressed in transfected cells; host or cells: BHK cells (parent BHKTS13), clone FCW467-12A/KZ10-1, with CRE luciferase
As to the kind of experiment: GLP-1 receptor potency, CRE luciferase reporter gene assay in BHK cells. Format: cell-based. The conditions noted are these: BHK cells expressing human GLP-1 receptor, read-out: EC50 GLP-1R. In short, it runs like this: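 BHK cells stably expressing human GLP-1 receptor with CRE-luciferase reporter, 5×10EE3 cells/well in phenol red-free DMEM with 10 mM Hepes, 2% ovalbumin, 0.2% Pluronic F-68. Compounds at final 1×10EE-6 to 1×10EE-13 M, 3 h at 37° C; steadylite luminescence; EC50 by four-parameter fit, in pM.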
(A reporter such as luciferase makes a cellular process visible.)
As a reminder, the EC50 is the midpoint of the concentration-response curve. On to `CC(C)C[C@H](NC(=O)[C@H](Cc1ccc(O)cc1)NC(=O)[C@H](CCCCN)NC(=O)[C@H](CO)NC(=O)[C@H](CC(C)C)NC(=O)[C@H](CC(=O)O)NC(=O)[C@H](CO)NC(=O)[C@@H](NC(=O)[C@H](Cc1ccccc1)NC(=O)[C@@H](NC(=O)CNC(=O)[C@H](CCC(N)=O)NC(=O)C1(NC(=O)[C@@H](N)Cc2c[nH]cn2)CCC1)[C@@H](C)O)[C@@H](C)O)C(=O)N[C@@H](CCC(=O)O)C(=O)N[C@@H](CO)C(=O)N[C@@H](CCCNC(=N)N)C(=O)N[C@@H](CCCNC(=N)N)C(=O)N[C@@H](C)C(=O)N[C@@H](CCCNC(=N)N)C(=O)N[C@@H](CCC(=O)O)C(=O)N[C@@H](Cc1ccccc1)C(=O)N[C@H](C(=O)N[C@@H](CCC(N)=O)C(=O)N[C@@H](Cc1c[nH]c2ccccc12)C(=O)N[C@@H](CC(C)C)C(=O)N[C@@H](CC(C)C)C(=O)N[C@@H](CCCCNC(=O)CC[C@H](NC(=O)CC[C@H](NC(=O)COCCOCCNC(=O)COCCOCCNC(=O)CC[C@H](NC(=O)CC[C@H](NC(=O)CCCCCCCCCCCCCCCCC(=O)O)C(=O)O)C(=O)O)C(=O)O)C(=O)O)C(=O)N[C@H](C(N)=O)[C@@H](C)O)C(C)C` [Example 61, N^ε28-[(4S)-4-carboxy-4-[[(4S)-4-carboxy-4-[[2-[2-[2-[[2-[2-[2-[[(4S)-4-carboxy-4-[[(4S)-4-carboxy-4-(17-carboxyheptadecanoylamino)butanoyl]amino]butanoyl]amino]ethoxy]ethoxy]acetyl]amino]ethoxy]ethoxy]acetyl]amino]butanoyl]amino]butanoyl]-[Acb2,Leu10,Glu15,Arg20,Glu21,Leu27,Lys28]-Glucagon amide] (H-H[Ac4c]QGTFTSDLSKYLESRRAREFVQWLLK([γGlu-γGlu-AEEA-AEEA-γGlu-γGlu-C18 diacid])T-NH2; N-terminus assumed), for which the EC50 is 6 pM.
Under `CC(C)C[C@H](NC(=O)[C@H](Cc1ccc(O)cc1)NC(=O)[C@H](CCCCN)NC(=O)[C@H](CO)NC(=O)[C@H](CC(C)C)NC(=O)[C@H](CC(=O)O)NC(=O)[C@H](CO)NC(=O)[C@@H](NC(=O)[C@H](Cc1ccccc1)NC(=O)[C@@H](NC(=O)CNC(=O)[C@H](CCC(N)=O)NC(=O)C(C)(C)NC(=O)[C@@H](N)Cc1c[nH]cn1)[C@@H](C)O)[C@@H](C)O)C(=O)N[C@@H](CC(=O)O)C(=O)N[C@@H](C)C(=O)N[C@@H](CCCNC(=N)N)C(=O)N[C@@H](CCCNC(=N)N)C(=O)N[C@@H](C)C(=O)N[C@@H](CCCNC(=N)N)C(=O)N[C@@H](CC(=O)O)C(=O)N[C@@H](Cc1ccccc1)C(=O)N[C@H](C(=O)N[C@@H](CCC(N)=O)C(=O)N[C@@H](Cc1c[nH]c2ccccc12)C(=O)N[C@@H](CC(C)C)C(=O)N[C@@H](CC(C)C)C(=O)N[C@@H](CC(N)=O)C(=O)N[C@@H](CCCCNC(=O)CC[C@H](NC(=O)CC[C@H](NC(=O)COCCOCCNC(=O)COCCOCCNC(=O)CC[C@H](NC(=O)CCCCCCCCCCCCCCCCC(=O)O)C(=O)O)C(=O)O)C(=O)O)C(N)=O)C(C)C` [Example 65] (H-H[Aib]QGTFTSDLSKYLDARRARDFVQWLLNK([γGlu-γGlu-AEEA-AEEA-γGlu-C18 diacid])-NH2; N-terminus assumed) stands 6 pM; under `CC(C)C[C@H](NC(=O)[C@H](Cc1ccc(O)cc1)NC(=O)[C@H](CCCCN)NC(=O)[C@H](CO)NC(=O)[C@H](CC(C)C)NC(=O)[C@H](CC(=O)O)NC(=O)[C@H](CO)NC(=O)[C@@H](NC(=O)[C@H](Cc1ccccc1)NC(=O)[C@@H](NC(=O)CNC(=O)[C@H](CCC(N)=O)NC(=O)C(C)(C)NC(=O)[C@@H](N)Cc1c[nH]cn1)[C@@H](C)O)[C@@H](C)O)C(=O)N[C@@H](CC(=O)O)C(=O)N[C@@H](C)C(=O)N[C@@H](CCCNC(=N)N)C(=O)N[C@@H](CCCNC(=N)N)C(=O)N[C@@H](C)C(=O)N[C@@H](CCCNC(=N)N)C(=O)N[C@@H](CC(=O)O)C(=O)N[C@@H](Cc1ccccc1)C(=O)N[C@H](C(=O)N[C@@H](CCC(N)=O)C(=O)N[C@@H](Cc1c[nH]c2ccccc12)C(=O)N[C@@H](CC(C)C)C(=O)N[C@@H](CC(C)C)C(=O)N[C@@H](CO)C(=O)N[C@@H](CCCCNC(=O)CC[C@H](NC(=O)CC[C@H](NC(=O)COCCOCCNC(=O)COCCOCCNC(=O)CC[C@H](NC(=O)CCCCCCCCCCCCCCCCC(=O)O)C(=O)O)C(=O)O)C(=O)O)C(N)=O)C(C)C` [Example 66, N^ε29-[(4S)-4-carboxy-4-[[(4S)-4-carboxy-4-[[2-[2-[2-[[2-[2-[2-[[(4S)-4-carboxy-4-(17-carboxyheptadecanoylamino)butanoyl]amino]ethoxy]ethoxy]acetyl]amino]ethoxy]ethoxy]acetyl]amino]butanoyl]amino]butanoyl]-[Aib2,Leu10,Ala16,Arg20,Leu27,Ser28,Lys29]-Glucagon amide] (H-H[Aib]QGTFTSDLSKYLDARRARDFVQWLLSK([γGlu-γGlu-AEEA-AEEA-γGlu-C18 diacid])-NH2; N-terminus assumed), 5 pM; under `CC(C)C[C@H](NC(=O)[C@H](Cc1ccc(O)cc1)NC(=O)[C@H](CCCCN)NC(=O)[C@H](CO)NC(=O)[C@H](CC(C)C)NC(=O)[C@H](CC(=O)O)NC(=O)[C@H](CO)NC(=O)[C@@H](NC(=O)[C@H](Cc1ccccc1)NC(=O)[C@@H](NC(=O)CNC(=O)[C@H](CCC(N)=O)NC(=O)C(C)(C)NC(=O)[C@@H](N)Cc1c[nH]cn1)[C@@H](C)O)[C@@H](C)O)C(=O)N[C@@H](CCC(=O)O)C(=O)N[C@@H](CO)C(=O)N[C@@H](CCCCN)C(=O)N[C@@H](CCCNC(=N)N)C(=O)N[C@@H](C)C(=O)N[C@@H](CCCNC(=N)N)C(=O)N[C@@H](CO)C(=O)N[C@@H](Cc1ccccc1)C(=O)N[C@H](C(=O)N[C@@H](CCC(N)=O)C(=O)N[C@@H](Cc1c[nH]c2ccccc12)C(=O)N[C@@H](CC(C)C)C(=O)N[C@@H](CC(C)C)C(=O)N[C@@H](CCCCNC(=O)CC[C@H](NC(=O)CC[C@H](NC(=O)[C@H](CO)NC(=O)[C@H](CCC(=O)O)NC(=O)[C@H](CO)NC(=O)CC[C@H](NC(=O)CC[C@H](NC(=O)CCCCCCCCCCCCCCCCC(=O)O)C(=O)O)C(=O)O)C(=O)O)C(=O)O)C(=O)N[C@H](C(N)=O)[C@@H](C)O)C(C)C` [Example 69, N^ε28-[(4S)-4-carboxy-4-[[(4S)-4-carboxy-4-[[(2S)-2-[[(2S)-4-carboxy-2-[[(2S)-2-[[(4S)-4-carboxy-4-[[(4S)-4-carboxy-4-(17-carboxyheptadecanoylamino)butanoyl]amino]butanoyl]amino]-3-hydroxypropanoyl]amino]butanoyl]amino]-3-hydroxypropanoyl]amino]butanoyl]amino]butanoyl]-[Aib2,Leu10,Glu15,Lys17,Arg20,Ser21,Leu27,Lys28]-Glucagon amide] (H-H[Aib]QGTFTSDLSKYLESKRARSFVQWLLK([γGlu-γGlu-Ser-Glu-Ser-γGlu-γGlu-C18 diacid])T-NH2; N-terminus assumed), 7 pM.
